Laboratory results published in patent US6979686B1, “Substituted pyrazoles as p38 kinase inhibitors” (Pharmacia Corporation, priority 2001, dated 2005).
Where two headings read alike, the source gives them in different places.

What was measured:
[1] = test system: TNF-α, U937 human histiocytic lymphoma cell line; assay: LPS stimulation of TNF production by U937 cells; format: cell-based; details: for inhibition at 1 µM / IC50: Homo sapiens; for inhibition at 1 µM: U-937, @ 1.0 uM, read-out: U937 Cell % inhib @ conc.; for IC50: read-out: U937 Cell IC50
Experimental: Maintenance and Differentiation of the U937 Human Histiocytic Lymphoma Cell Line:
Fifty million cells in 100 ml media were induced to terminal monocytic differentiation by 24 hour incubation with 20 ng/ml phorbol 12-myristate 13-acetate (Sigma). The cells were washed by centrifugation (200×g for 5 min) and resuspended in 100 ml fresh medium. After 24-48 hours, the cells were harvested, centrifuged, and resuspended in culture medium at 2 million cells/ml.
LPS Stimulation of TNF Production by U937 Cells:
Compounds were prepared as 10 mM stock solutions in DMSO and diluted in culture medium to yield a final DMSO concentration of 0.1% in the cell assay. LPS (E coli, 100 ng/ml final concentration) was then added at a volume of 0.02 ml. After 4 hour incubation at 37° C., the amount of TNF-α released in the culture medium was quantitated by ELISA. Inhibitory potency is expressed as IC50 (μM).
In vitro whole cell assay for measuring the ability of the compounds to inhibit TNF production in human U937 cells stimulated with LPS are shown in the column identified as: • “U937 Cell IC50, uM or % inhib @ conc., (uM)”

human p38 kinase alpha = target: T1, human p38 kinase alpha (Homo sapiens, UniProt Q16539); assay: p38 kinase in vitro assay, phosphorylation of biotinylated PHAS-I with 32P-ATP; format: biochemical; details: for IC50: read-out: P38 alpha kinase IC50
T1 construct: GST (N, cleaved yes); made in house; host or cells: E. coli DH10B
T1 sequence (Q16539 whole entry): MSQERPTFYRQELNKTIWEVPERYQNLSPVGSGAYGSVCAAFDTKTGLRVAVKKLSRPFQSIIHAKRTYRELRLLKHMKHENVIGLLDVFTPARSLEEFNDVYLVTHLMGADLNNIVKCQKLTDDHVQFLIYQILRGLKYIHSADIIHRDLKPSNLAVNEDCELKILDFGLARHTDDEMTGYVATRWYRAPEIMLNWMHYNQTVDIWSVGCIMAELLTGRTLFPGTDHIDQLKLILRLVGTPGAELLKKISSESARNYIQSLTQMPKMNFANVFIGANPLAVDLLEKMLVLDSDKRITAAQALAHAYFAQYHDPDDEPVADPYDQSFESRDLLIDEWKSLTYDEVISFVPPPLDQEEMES

[2] = @ 10.0 uM, TNF production, U937 cells stimulated with LPS
[3] = TNF production in human U937 cells stimulated with LPS
[4] = in vitro P38-alpha kinase inhibition
[5] = TNF production, U937 cells stimulated with LPS
[6] = U-937, TNF production, human U937 cells stimulated with LPS
[7] = TNF production, LPS-stimulated U937 cells
[8] = @ 1.0 uM, TNF production, U937 cells stimulated with LPS

In the case of `COCCN(Cc1cccc(OC)c1)C(=O)Cn1nc(-c2ccc(F)cc2)c(-c2ccncc2)c1C` [Example B-2394], the “U937 Cell IC50, uM or % inhib @ conc. (uM): % inhib” value (“U937 Cell IC50 … % inhib” for short) [1, 2] is reported as 22.0% @ and the “P38 alpha kinase IC50, uM or % inhib @ conc. (uM): % inhib” value (shortened to “P38 alpha kinase IC50 … % inhib”) (human p38 kinase alpha; @ 10.0 uM) is reported as 37.0% @.
`COc1cccc(CC(=O)NC(C)c2[nH]nc(-c3ccc(F)cc3)c2-c2ccncc2)c1` (stereo not shown) [Example B-0550] showed an inhibition at 1 µM [1, 3] of 14% and an IC50 (human p38 kinase alpha; [4]) of 2410 nM.
`CNC(=O)CCC(NC(=O)Cc1cccc(OC)c1)c1[nH]nc(-c2ccc(F)cc2)c1-c1ccncc1` (stereo not shown) [Example B-0872] showed an inhibition at 1 µM [1, 5] of 3% and an IC50 (human p38 kinase alpha; [4]) of 3130 nM.
With `CNC(=O)CCC(NC(=O)Nc1ccccc1F)c1[nH]nc(-c2ccc(F)cc2)c1-c1ccncc1` (stereo not shown) [Example B-0881] the IC50 [1, 6] was > 1000 nM and the IC50 (human p38 kinase alpha; [4]) was 1360 nM.
`COc1ccc(Br)cc1S(=O)(=O)N1CCC(c2[nH]nc(-c3ccc(F)cc3)c2-c2ccncc2)CC1` [Example B-1446] was tested, and the inhibition at 1 µM [1, 7] was 36% and the IC50 (human p38 kinase alpha; in vitro P38-alpha kinase) was 770 nM.
`CN(C)CCNC(=O)NCCCc1[nH]nc(-c2ccc(F)cc2)c1-c1ccncc1` [Example B-1302] showed an inhibition at 1 µM [1, 7] of 11% and an IC50 (human p38 kinase alpha; in vitro P38-alpha kinase) of 23 nM.
For `Cc1c(-c2ccncc2)c(-c2ccc(F)cc2)nn1CC(=O)N1CCCN(C)CC1` [Example B-2382], the “U937 Cell % inhib @ conc.” value ([1]; @ 10.0 uM, TNF production, LPS-stimulated U937 cells) was 24.0% @ and the “P38 alpha kinase % inhib @ conc.” value (human p38 kinase alpha; @ 10.0 uM) was 51.0% @.
For `COC(=O)C1CN1C(=O)Cn1nc(-c2ccc(F)cc2)c(-c2ccncc2)c1C` (stereo not shown) [Example B-2406], the “U937 Cell IC50 … % inhib” value [1, 2] was 24.0% @ and the “P38 alpha kinase IC50 … % inhib” value (human p38 kinase alpha; @ 10.0 uM) was 45.0% @.
With `C=CCOC(=O)NC(Cc1ccccc1)c1[nH]nc(-c2ccc(F)cc2)c1-c1ccncc1` (stereo not shown) [Example B-0801] the IC50 [1, 6] was > 1000 nM and the IC50 (human p38 kinase alpha; [4]) was 670 nM.
With `Cc1c(-c2ccncc2)c(-c2ccc(F)cc2)nn1CC(=O)N(C)CCN1CCOCC1` [Example B-2395] the “U937 Cell IC50 … % inhib” value [1, 2] was 28.0% @ and the “P38 alpha kinase IC50 … % inhib” value (human p38 kinase alpha; @ 10.0 uM) was 32.0% @.
With `O=C(NCc1[nH]nc(-c2ccc(F)cc2)c1-c1ccncc1)[C@@H]1CCCN1` [B0194] the “U937 Cell % inhib @ conc.” value [1, 8] was 22% @ and the IC50 (human p38 kinase alpha; in vitro P38-alpha kinase) was 1310 nM.
In the case of `O=C(NC(Cc1ccccc1)c1[nH]nc(-c2ccc(F)cc2)c1-c1ccncc1)c1ccccn1` (stereo not shown) [Example B-0823], the IC50 [1, 6] is reported as > 1000 nM and the IC50 (human p38 kinase alpha; [4]) is reported as 2390 nM.
In the case of `Cc1c(-c2ccncc2)c(-c2ccc(F)cc2)nn1CC(=O)N(CC1CC1)C(C)Cc1ccc(Cl)cc1` (stereo not shown) [Example B-2397], the “U937 Cell IC50 … % inhib” value [1, 2] is reported as 22.0% @ and the “P38 alpha kinase IC50 … % inhib” value (human p38 kinase alpha; @ 10.0 uM) is reported as 83.0% @.
With `O=S(=O)(NCCCc1[nH]nc(-c2ccc(F)cc2)c1-c1ccncc1)c1cccc(C(F)(F)F)c1` [Example B-1276] the inhibition at 1 µM [1, 7] was 11% and the IC50 (human p38 kinase alpha; in vitro P38-alpha kinase) was 62 nM.
Compound `CC(NS(C)(=O)=O)c1[nH]nc(-c2ccc(F)cc2)c1-c1ccncc1` (stereo not shown) [Example B-0573] has an IC50 ([1]; U-937, TNF production in human U937 cells stimulated with LPS) of 1700 nM and an IC50 (human p38 kinase alpha; [4]) of 360 nM.
`O=S(=O)(NC(Cc1ccccc1)c1[nH]nc(-c2ccc(F)cc2)c1-c1ccncc1)c1cccs1` (stereo not shown) [Example B-0765] gave an inhibition at 1 µM [1, 3] of 29% and an IC50 (human p38 kinase alpha; [4]) of 300 nM.
With `CC(=O)OC(C)C(=O)NC(Cc1ccccc1)c1[nH]nc(-c2ccc(F)cc2)c1-c1ccncc1` (stereo not shown) [Example B-0841] the “U937 Cell % inhib @ conc. (uM)” value [1, 8] was 36.0% @ and the IC50 (human p38 kinase alpha; [4]) was 320 nM.
With `CNC(=O)CCC(NS(=O)(=O)c1ccccc1F)c1[nH]nc(-c2ccc(F)cc2)c1-c1ccncc1` (stereo not shown) [Example B-0879] the inhibition at 1 µM [1, 5] was 1% and the IC50 (human p38 kinase alpha; [4]) was 870 nM.
In the case of `CC(NC(=O)c1cc(Cl)cc(Cl)c1)c1[nH]nc(-c2ccc(F)cc2)c1-c1ccncc1` (stereo not shown) [Example B-0675], the “U937 Cell % inhib @ conc. (uM)” value ([1]; @ 1.0 uM, TNF production in human U937 cells stimulated with LPS) is reported as 3.0% @ and the IC50 (human p38 kinase alpha; [4]) is reported as 5420 nM.
In the case of `CN(C)CCCNC(=O)NCCCc1[nH]nc(-c2ccc(F)cc2)c1-c1ccncc1` [Example B-1303], the IC50 [1, 6] is reported as > 1000 nM and the IC50 (human p38 kinase alpha; in vitro P38-alpha kinase) is reported as 80 nM.
For `O=S(=O)(c1c(F)cccc1F)N1CCC(c2[nH]nc(-c3ccc(F)cc3)c2-c2ccncc2)CC1` [Example B-1455], the inhibition at 1 µM [1, 7] was 8% and the IC50 (human p38 kinase alpha; in vitro P38-alpha kinase) was 1210 nM.
Compound `O=S(=O)(NCCc1[nH]nc(-c2ccc(F)cc2)c1-c1ccncc1)c1cc(Cl)c(Cl)s1` [Example B-1080] has an inhibition at 1 µM [1, 5] of 28% and an IC50 (human p38 kinase alpha; [4]) of 190 nM.
Work on `COc1ccc(OC)c(S(=O)(=O)N2CCC(c3[nH]nc(-c4ccc(F)cc4)c3-c3ccncc3)CC2)c1` [Example B-1444] yielded an inhibition at 1 µM [1, 7] of 24% and an IC50 (human p38 kinase alpha; in vitro P38-alpha kinase) of 300 nM.
